The record followed here is US12378222B2, “NLRP3 inflammasome inhibitors” (Novartis AG, priority 2022, dated 2025).

What all share (format): cell-based
One data set addresses T1, NLRP3 inflammasome (Homo sapiens, UniProt Q96P20).
T1 construct: NLRP3-dependent IL-1β secretion was stimulated in PMA-differentiated THP-1 cells by the addition of nigericin; host or cells: THP-1 cells, PMA-differentiated
Kind of data set: IL-1β secretion assay (nigericin-activated, PMA-differentiated THP-1 cells, HTRF). Particulars: 15 μM nigericin, 3 h, arithmetic mean of at least 3 experiments.

Data set [1] has as its system Pam3CSK4-stimulated, NF-κB-dependent TNF-α secretion. Kind of data set: TNF-α secretion assay (counter screen, THP-1 cells, HTRF). Particulars: Homo sapiens, undifferentiated THP-1 cells, 3 h, at least 2 replicates. The method, then:
Monocytic THP-1 cells were maintained according to providers' instructions in RPMI media as described above. Undifferentiated cells were plated at 50,000 cells per well in a 384-well flat-bottom cell culture plates (Greiner, #781986), and allowed to rest overnight. Experimental compounds were prepared and added as described above. TNF-α secretion was triggered by the addition of either 1 μg/mL LPS (Sigma, #L4391) or 100 ng/ml Pam3CSK4 (Invivogen, #tlrl-pms) depending on the experiment, and cells were incubated for 3 h. 10 μL supernatant was removed, and TNF-α levels were monitored using an HTRF assay (CisBio, #62TNFPEC) according to manufacturers' instructions. Viability was monitored as
IC50 values were calculated from the plot of percentage of inhibition versus the inhibitor concentration by a logistics fit according to: y=A2+(A1−A2)/(1+(x/IC50)^p) where y is the %-inhibition at the inhibitor concentration, x. A1 is the lowest inhibition value, i.e. 0%, and A2 the maximum inhibition value, i.e. 100%. The exponent, p, is the Hill coefficient. The curve fitting was conducted with an internally developed software suite. NLRP3-dependent IL-1β secretion was stimulated in PMA-differentiated THP-1 cells by the addition of nigericin, and cytokines were measured in the […] after 3 h. As discussed above, activation of the NLRP3 inflammasome requires both an NF-κB-dependent priming step and the addition of a NLRP3 activator. […] Data for IL-1β secretion was calculated as the arithmetic mean of at least 3 individual experiments, and TNF-α secretion data was consistent across at least 2 individual replicates.

The target in data set [2] is T2, alpha-subunit of the hERG channel (Homo sapiens, UniProt Q12809).
T2 construct: expressed in transfected cells; host or cells: CHO (T-REX) cells, tetracycline-induced
Briefly: hERG electrophysiological inhibition assay using the Qube technology (automated patch clamp, CHO cells). The method, then:
(§1) Chinese hamster ovary (CHO) cell line, overexpressing the alpha-subunit of the hERG channel under the control of tetracycline-regulated promoter, was created using commercially available T-REX™ system (Invitrogen). CHO (T-REX™) hERG cells were maintained in Ham's F-12 nutrient medium (Life Tech) supplemented with 10% fetal bovine serum (HyClone), 1% penicillin-streptomycin, 10 μg/mL Blasticidin and 50 μg/mL Zeocin (all from Life Technologies, Thermo Fisher Scientific). For hERG expression induction, 1 μg/ml tetracycline (Sigma-Aldrich) was added to the growth media 24 hours before the current recording. To prepare the cell suspension for Qube experiments, cells were dislodged from culture flask by incubation in Detachin (Genlantis) at 37° C. for approximately 5 min, and resuspended in CHO serum free media (CHO-SFM II, Life Technologies) at a density of 2-3 million cells per mL.
(§2) Patch clamp experiments were performed on the Qube APC (automated patch clamp) platform (Sophion Bioscience A/S, Ballerup, Denmark) using the 384X 10-hole chip at 35° C. Intracellular KF-Ringer's solution consisted of (in mM) 120 KF, 20 KCl, […] ethylene glycol-bis(2-aminoethylether)-N,N,N′,N′-tetraacetic acid (EGTA) and 10 (4-(2-hydroxyethyl)-1-piperazineethanesulfonic acid (HEPES), pH at 7.2 with KOH. Extracellular solution consisted of (in mM) 145 NaCl, 4 KCl, 2 CaCl2, 1 MgCl2, 10 HEPES, 10 Glucose and 0.3% dimethyl sulfoxide (DMSO), pH at 7.4 with NaOH. The hERG current was elicited by applying the following voltage protocol: cells are held at −90 mV resting membrane potential for 100 msec, then clamped at −50 mV for 100 msec for leak estimation, depolarized to +20 mV for 4 sec (peak current measurement) and finally repolarized to −50 mV for 4 sec (tail current recording) before returning to the holding potential of −90 mV. The data are sampled at 10 KHz, with cutoff at 2 kHz, and filtered using the Bessel filter. The protocol was repeated every 15 s, 30 times before and 30 times after a compound application.
All compounds were prepared as 10 mM stock in 100% DMSO, then serially dilutes 1:3 down in Labcyte 384-well Echo Qualified LDV (low […] volume) microplate. The Qube assay plate was prepared by transferring 0.15-0.3 μL of a compound from the serial dilution plate to the 384-well Greiner plate using Labcyte Echo 650 liquid handler (Beckman). Right before the experiment, the compounds in each well were further diluted in extracellular solution using Biomek i7 liquid handler (Beckman) to create the final concentrations of 0.37, 1.1, 3.3, 10, 15 and 30 μM (1:333 dilution to keep the final DMSO concentration in all samples ≤0.3%). Amitriptyline hydrochloride (positive control) and DMSO (0.3%, vehicle control) were included in each plate.
(§3) The results were initially reviewed using the Qube specific Sophion Analyzer software (Sophion Bioscience), then analyzed using Data Analysis and Visualization in Discovery (DAVID) software package (Novartis AG). The compound effect on hERG current inhibition (normalized percentage of inhibition) was calculated as % Inh=(Icompound−Ivehicle)/Ivehicle*−100, where Icompound and Ivehicle are the averages of the last three leak-corrected tail hERG currents […] a compound application, respectively. […]

Data set [3] concerns the target T3, hERG (Homo sapiens, UniProt Q12809). Briefly: hERG channel test using the QPatch technology (automated patch clamp, CHO cells). The arrangement: host or cells: CHO cells. Particulars: for inhibition at 4 min, 30 µM: human, CHO cells stably expressing hERG channels, pH 7.4, highest test concentration 30 μM. The method, then:
CHO cells (AVIVA Biosciences Corp, San Diego, CA) stably expressing hERG channels were patched using a QPatch-HT automated patch clamp instrument (Sophion Bioscience A/S, Ballerup, Denmark) in single hole mode. The intracellular solution consisted of 120 mM KCl, 5 mM CaCl2, 2 mM MgCl2, 10 mM ethylene glycolbis (2-aminoethylether)-N,N,N′,N′-tetraacetic acid (EGTA), 10 mM (4-(2-hydroxyethyl)-1-piperazineethanesulfonic acid (HEPES), and 4 mM dipotassium adenosine-5′-triphosphate (ATP-K2), pH adjusted to 7.2 using KOH. The extracellular solution consisted of 145 mM NaCl, 4 mM KCl, 2 CaCl2, 1 mM MgCl2, 10 mM HEPES, and 0.3% dimethyl sulfoxide (DMSO), adjusted to pH 7.4 using NaOH. All measurements were performed at room temperature, and the blockers were pre-incubated for 4 min. The cells were voltage clamped at −90 mV and the hERG current was activated using a voltage step to +20 mV for 4 s. The hERG tail currents were measured by stepping down to −50 mV for 4 s before returning to −90 mV. This protocol was repeated every 20 s. The peak hERG current was automatically corrected by subtracting the leak current, which was estimated by measuring the mean current during a short depolarizing step to −50 mV from the resting membrane potential just prior to the long depolarizing step to • +20 mV at the beginning of the voltage protocol. Test articles were diluted using DMSO stock solutions and the extracellular solution. […] The effect of the test article on the hERG tail current was assessed and 1, 10 and 30 μM and a positive control (amitriptiline, 1, 3 and μM) was included on each plate.

The target of data set [4] is T3, hERG. Kind of data set: hERG electrophysiological inhibition assay using the Qube technology (automated patch clamp, CHO cells). Particulars: human, pH 7.4; 30 μM, CHO (T-REx) hERG cells, 35° C. Also noted: expressed in transfected cells; host or cells: CHO (T-REX) cells, tetracycline-induced. The method, then:
as §1, §2
All compounds were prepared as 10 mM stock in 100% DMSO, then serially dilutes 1:3 down in Labcyte 384-well Echo Qualified LDV (low diamond volume) microplate. […]
as §3

Where [5] appears, read: CHO (T-REx) hERG cells, 35° C., tail current.
[6] abbreviates: CHO cells stably expressing hERG, room temperature.

T3 sequence (Q12809 whole entry): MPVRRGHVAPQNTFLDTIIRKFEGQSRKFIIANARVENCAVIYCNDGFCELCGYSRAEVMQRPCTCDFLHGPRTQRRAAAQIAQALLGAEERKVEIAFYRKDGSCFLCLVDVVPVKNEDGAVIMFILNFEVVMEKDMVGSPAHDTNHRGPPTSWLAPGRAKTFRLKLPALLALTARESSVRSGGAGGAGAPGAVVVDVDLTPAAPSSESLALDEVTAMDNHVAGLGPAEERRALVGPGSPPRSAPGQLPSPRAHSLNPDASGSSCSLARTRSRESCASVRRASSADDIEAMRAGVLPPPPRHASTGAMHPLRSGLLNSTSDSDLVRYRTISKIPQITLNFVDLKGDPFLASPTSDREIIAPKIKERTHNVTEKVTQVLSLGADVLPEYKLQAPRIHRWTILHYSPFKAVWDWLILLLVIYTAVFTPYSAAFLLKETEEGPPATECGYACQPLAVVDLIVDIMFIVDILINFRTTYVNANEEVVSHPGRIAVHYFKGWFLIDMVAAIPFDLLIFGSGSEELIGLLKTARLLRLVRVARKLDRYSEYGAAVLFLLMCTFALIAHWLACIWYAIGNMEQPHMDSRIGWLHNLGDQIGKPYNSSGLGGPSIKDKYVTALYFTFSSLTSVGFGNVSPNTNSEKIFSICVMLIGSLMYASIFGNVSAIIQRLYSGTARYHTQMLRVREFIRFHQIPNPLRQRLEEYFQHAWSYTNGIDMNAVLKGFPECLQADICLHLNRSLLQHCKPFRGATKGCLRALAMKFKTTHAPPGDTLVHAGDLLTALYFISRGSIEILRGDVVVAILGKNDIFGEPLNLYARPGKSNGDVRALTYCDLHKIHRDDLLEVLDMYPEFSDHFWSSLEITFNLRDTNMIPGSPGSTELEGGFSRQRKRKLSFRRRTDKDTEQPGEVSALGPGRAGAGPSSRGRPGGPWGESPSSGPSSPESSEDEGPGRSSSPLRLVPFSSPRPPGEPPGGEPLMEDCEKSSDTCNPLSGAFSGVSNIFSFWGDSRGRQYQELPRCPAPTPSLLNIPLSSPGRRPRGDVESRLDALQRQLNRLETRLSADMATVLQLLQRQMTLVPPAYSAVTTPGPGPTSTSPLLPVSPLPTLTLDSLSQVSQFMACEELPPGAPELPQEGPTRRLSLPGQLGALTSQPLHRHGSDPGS
T2 sequence (Q12809 whole entry): as above
T1 sequence (Q96P20 whole entry): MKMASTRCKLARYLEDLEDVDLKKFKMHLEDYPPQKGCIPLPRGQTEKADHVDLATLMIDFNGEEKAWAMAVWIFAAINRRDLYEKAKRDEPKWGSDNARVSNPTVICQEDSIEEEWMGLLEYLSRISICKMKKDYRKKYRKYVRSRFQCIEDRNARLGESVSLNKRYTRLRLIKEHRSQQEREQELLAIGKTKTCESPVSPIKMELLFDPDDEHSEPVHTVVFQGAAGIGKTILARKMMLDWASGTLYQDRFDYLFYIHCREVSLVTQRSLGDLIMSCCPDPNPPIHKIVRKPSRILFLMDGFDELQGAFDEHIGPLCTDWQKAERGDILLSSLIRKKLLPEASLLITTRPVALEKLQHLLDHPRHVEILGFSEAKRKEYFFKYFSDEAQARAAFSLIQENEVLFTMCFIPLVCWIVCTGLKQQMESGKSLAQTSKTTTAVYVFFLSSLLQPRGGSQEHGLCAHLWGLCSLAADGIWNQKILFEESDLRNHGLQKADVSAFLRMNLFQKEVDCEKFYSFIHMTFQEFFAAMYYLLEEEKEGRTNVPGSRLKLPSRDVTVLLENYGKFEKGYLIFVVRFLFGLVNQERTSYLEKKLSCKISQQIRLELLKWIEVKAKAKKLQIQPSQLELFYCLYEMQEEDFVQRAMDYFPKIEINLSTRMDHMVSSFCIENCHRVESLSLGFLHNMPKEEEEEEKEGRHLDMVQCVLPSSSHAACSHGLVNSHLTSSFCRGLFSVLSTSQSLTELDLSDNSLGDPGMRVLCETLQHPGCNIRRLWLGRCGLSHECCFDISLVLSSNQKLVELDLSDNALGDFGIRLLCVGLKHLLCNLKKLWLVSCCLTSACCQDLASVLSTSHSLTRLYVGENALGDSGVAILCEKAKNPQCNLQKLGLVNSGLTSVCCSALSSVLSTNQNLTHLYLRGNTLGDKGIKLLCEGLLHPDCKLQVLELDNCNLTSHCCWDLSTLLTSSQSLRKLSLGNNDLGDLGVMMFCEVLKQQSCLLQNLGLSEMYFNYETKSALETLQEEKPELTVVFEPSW
Procedure for NLRP3 inflammasome: Monocytic THP-1 cells (ATCC: TIB-202) were maintained according to providers' instructions in RPMI media (RPMI/Hepes+10% fetal bovine serum+Sodium Pyruvate+0.05 mM Beta-mercaptoethanol (1000× stock)+Pen-Strep). Cells were differentiated in bulk with 0.5 μM phorbol 12-myristate 13-acetate (PMA; Sigma #P8139) for 3 h, media was exchanged, and cells were plated at 50,000 cells per well in a 384-well flat-bottom cell culture plates (Greiner, #781986), and allowed to differentiate overnight. Compound in a 1:3.16 serial dilution series in DMSO was added 1:100 to the cells and incubated for 1 h. […] 10 μL supernatant was removed, and IL-1β levels were monitored using an HTRF (Homogeneous Time Resolved Fluorescence) assay (CisBio, #62IL1PEC) according to manufacturers' instructions.
IC50 values were calculated from the plot of percentage of inhibition versus the inhibitor concentration by a logistics fit according to: y=A2+(A1−A2)/(1+(x/IC50)^p) where y is the %-inhibition at the inhibitor concentration, x. […] NLRP3-dependent IL-1β secretion was stimulated in PMA-differentiated THP-1 cells by the addition of nigericin, and cytokines were measured in the serum after 3 h. […] Data for IL-1β secretion was calculated as the arithmetic mean of at least 3 individual experiments, and TNF-α secretion data was consistent across at least 2 individual replicates.

On to `Cc1cc(C(F)(F)F)cc(O)c1-c1cc(CO)c(N[C@@H]2CCCN(C)C2)nn1` [Example 1, (R)-2-(5-(hydroxymethyl)-6-((1-methylpiperidin-3-yl)amino)pyridazin-3-yl)-3-methyl-5-(trifluoromethyl)phenol], for which the IC50 at NLRP3 inflammasome was 0.00072 µM; in data set [1], over 100 µM; in data set [2] (setting [5]) it was over 30 µM; on hERG [3] (CHO cells stably expressing hERG, room temperature, tail current, tested at 1, 10 and 30 μM), over 30 µM. Moreover, in data set [2] (comparison in words), the “hERG Qube IC50 compared with reference examples 1 and 2” value is “considerably increased”. For the same compound, the “hERG QPatch IC50 compared with reference examples 1 and 2” value at hERG [3] (comparison in words) was “considerably increased”. Further, at hERG [3] (setting [6]), the inhibition at 4 min, 30 µM is 24.3%. In addition, on hERG [4], the inhibition at 7.5 min, 30 µM was 40.9%.
For `Cc1cc(-c2c(C)cc(C(F)(F)F)cc2O)nnc1N[C@@H]1CCCN(C)C1` [Reference ex. 1, (R)-3-Methyl-2-(5-methyl-6-((1-methylpiperidin-3-yl)amino)pyridazin-3-yl)-5-(trifluoromethyl)phenol], the IC50 was over 33 µM in data set [1], 4.71 µM in data set [2] (unit inferred) and 13.1 µM against hERG [3] (unit inferred). At hERG [3] (setting [6]), the inhibition at 4 min, 30 µM was 64.7%. The compound also came in with an inhibition at 7.5 min, 30 µM at hERG [4] of 77.9%.
For `Cc1cc(C(F)(F)F)cc(O)c1-c1cc(C(F)(F)F)c(N[C@@H]2CCCN(C)C2)nn1` [Reference ex. 2, (R)-3-methyl-2-(6-((1-methylpiperidin-3-yl)amino)-5-(trifluoromethyl)pyridazin-3-yl)-5-(trifluoromethyl)phenol], the results for the IC50 (in data set [1]; in data set [2] (unit inferred); against hERG [3] (unit inferred)) were over 100 µM, 5.62 µM and 3.9 µM, respectively. At hERG [3] (setting [6]), this compound registered an inhibition at 4 min, 30 µM of 93.6%. At hERG [4], the inhibition at 7.5 min, 30 µM was found to be 74.9%.
Regarding `Cc1cc(C(F)(F)F)cc(O)c1-c1nnc(N[C@@H]2CCCN(C)C2)c2c1COC2` [Reference ex. 3, 3-methyl-2-(4-(((R)-1-methylpiperidin-3-yl)amino)-5,7-dihydrofuro[3,4-d]pyridazin-1-yl)-5-(trifluoromethyl)phenol], the IC50 against NLRP3 inflammasome was 0.0037 µM; in data set [1], over 100 µM; in data set [2] (setting [5]) it was over 30 µM. This compound also displayed an inhibition at 7.5 min, 30 µM at hERG [4] of 49.8%.
